Assay results from US4232006A, “Antibiotic W-10 complex, antibiotic 20561 and antibiotic 20562 as antifungal agents” (Schering Corporation, priority 1978, dated 1980).
Values after ≈ are worked out from the molar mass of the structure shown. Numbered stars: 1 amine (or outer) side, 2 acyl side, 3 side chain; on linkers, the order of the positions; unused ones are H or OH. Bridge positions count the residues as written; N and C are the ends. Square brackets hold non-standard residues; d marks the D form. Peptide text beside a SMILES is read from it. * marks the point of attachment. NMeT = CN[CH](C(=O)O)[CH](C)O; X1 = CCCCCCCCCCCC(O)CC(=O)*; X2 = CC=C(N[*:1])C(=O)[*:2]; X3 = OCC1OC(*)C(O)C(O)C1O

Assays:
[1] = test system: Aeromonas sp. W-10; assay: Resistance of Aeromonas sp. W-10 to antibacterial agents (physiological characteristics); type: cell-based
Source text: Based upon the physiological characteristics, morphology and the guanine plus cytosine content of isolated DNA, we have classified the organism as a novel member of the genus Aeromonas. We have designated the bacterium Aeromonas sp. W-10, sometimes referred to herein as Aeromonas W-10, and have deposited the microorganism with the United States Department of Agriculture, Northern Utilization Research and Development Division (NRRL), Peoria, Illinois, from whom subcultures are available. The microorganism has been assigned the numerical designation NRRL B-11053. […]. When observed microscopically, Aeromonas sp. W-10 is seen to be a non-spore forming, gram-negative rod approximately 0.5 to 1.0×1.0-1.5 microns. It occurs singly and is motile by means of a single polar flagellum. The organism is facultatively anaerobic, oxidase positive, capable of reducing nitrates to nitrites, insensitive to the vibriostatic compound 2 4-diamino-6,7-diisopropylpteridine (0/129) with a guanine-cytosine content of DNA at 61%. According to Bergy's Manual of Determinative Bacteriology, 8th Edition, the organism is, on the basis of the data set forth, classified as a member of the genus Aeromonas.
The growth and physiological characteristics of Aeromonas sp. All observations were made after seven (7) days of incubation at 28° C. […]

[2] = test system: Trichophyton mentagrophytes; assay: In vivo topical activity against Trichophyton mentagrophytes skin infection in guinea pigs; settings: 1% suspension in polyethylene glycol 400, topical twice daily for ten days from three days after infection
Protocol: The skin of fifteen guinea pigs is abraided and infected with a standard culture of Trichophyton mentagropytes. The infected animals are then separated into three groups containing five animals each. Suspensions containing 1% of the respective antibiotics in polyethylene glycol 400 are prepared. Two of the three groups are treated topically, twice daily for ten days commencing three days after infection. The third group (controls) remained untreated throughout the test. All of the animals are tested for infection by culture and observed for skin lesions for a total of 21 days.

[3] = test system: Saccharomyces cerevisiae ATCC 9763; assay: Agar diffusion potency assay against standard solution of Antibiotic 20562; type: cell-based
Protocol: Peak Antibiotic W-10 Complex production is determined by periodic sampling of the fermentation mixture and by subjecting the samples to an agar diffusion assay using Saccharomyces cerevisiae ATCC 9763 as the test organism. The broths are assayed against a standard solution of Antibiotic 20562 having an assigned potency of 1000 mcg/mg. The standard solution is diluted with 10% potassium phosphate buffer (pH 6.0) to make solutions having antibiotic concentrations of 3.2, 4.0, 5.0, 6.25 and 7.8 mcg/ml. The assay is performed substantially as set forth in the Federal Register, Title 21, Chapter 436.105.

[4] = test system: Candida albicans; assay: In vivo protection (PD50) of mice intravenously infected with Candida albicans; design: species or system male CF1 mice; settings: single dose one hour after i.v. infection, determined 48 hours after infection
Protocol: The in vivo activity of Antibiotic 20561, Antibiotic 20562 and the Antibiotic W-10 complex are obtained using male CF1 mice (Carworth Famrs) given a single oral or subcutaneous dose one hour after intraveneous infection with sufficient Candida albicans to kill 80% of the infected mice in 48 hours.
PD50 values were determined 48 hours after infection and are as follows: […]

[5] = Toxicity (LD50), oral or subcutaneous administration; type: in vivo
[6] = test system: Candida albicans; assay: MIC in vitro in Sabourraud dextrose broth against strains of Candida albicans; type: cell-based
Protocol: Antibiotic 20562 was tested in vitro in Sabourraud dextrose broth against strains of Candida albicans, the Minimum Inhibitory Concentration (MIC) being set forth in Table IV below: […]

[7] = test system: Candida albicans (Wisconsin strain); assay: Topical in vivo activity against Candida albicans intravaginal infection in hamsters
Protocol: Using a culture of Candida albicans (Wisconsin strain), in Sabourrauds dextrose broth, infect intravaginally, five groups of six female hamsters. Forty-eight and seventy-two hours after infection, make smears of the infected animals and culture the smears. […] (96 hours after infection), make additional smears, culture and commence treatment. One group of six animals (controls) receives no treatment and, therefore, remains infected throughout the test. The remaining four groups of animals are treated with Antibiotic 20562, as 1%, 5%, 10% and 15% suspensions, respectively, the vehicle for suspension being administered on a cotton swab. At the end of the three day treatment the 1%, 5% and 10% groups are 60% cured, the 15% group is completely (100%) cured.

[8] = products of Example 2 step B, precipitated after silica gel chromatography
[9] = products of Example 3 steps C and D
[10] = separated antibiotics, crystalline solids from methanol, vs standard of 1000 mcg/mg

For `CC(C)c1nc2nc(N)nc(N)c2nc1C(C)C` [0/129, 2 4-diamino-6,7-diisopropylpteridine], the “sensitivity of the organism to the vibriostatic compound” value [1] was “insensitive”.

With `CC=C(NC(=O)CC(O)CCCCCCCCCCC)C(=O)NC1C(=O)NC(C(C)O)C(=O)NC(Cc2ccc(O)cc2)C(=O)NC(=CC)C(=O)NC(CCC(N)=O)C(=O)NCC(=O)N(C)C(C(C)O)C(=O)NC(Cc2cnc[nH]2)C(=O)OC1C` (centres unmarked) [Antibiotic 20561] (X1-[X2]TTY[X2]QG[NMeT]H; ester 2-C; configuration not given here) the “Days to become negative: Culture” value [2] was 4.8 days, the “Days to become negative: Lesion” value [2] was 6.3 days and the “Assay (potency by agar diffusion)” value [3, 8] was 800 µg/mg. For the same molecule, the “Assay (potency by agar diffusion)” value [3, 9] was 800 µg/mg, the “Assay (potency by agar diffusion)” value [3, 10] was “about 800 mcg/mg” and the PD50 ([4]; oral administration) was 25 mg/kg. It also gave a PD50 ([4]; subcutaneous administration) of 4 mg/kg, an LD50 ([5]; oral administration) of 1000 mg/kg and an LD50 ([5]; subcutaneous administration) of over 1000 mg/kg.

In the case of `CC=C(NC(=O)CC(O)CCCCCCCCCCC)C(=O)NC1C(=O)NC(C(C)O)C(=O)NC(Cc2ccc(O)cc2)C(=O)NC(=CC)C(=O)NC(CCC(N)=O)C(=O)NCC(=O)N(C)C(C(C)OC2OC(CO)C(O)C(O)C2O)C(=O)NC(Cc2cnc[nH]2)C(=O)OC1C` (centres unmarked) [Antibiotic 20562] (X1-[X2]TTY[X2]QG[NMeT](X3)H; ester 2-C; configuration not given here), the “Days to become negative: Culture” value [2] is reported as 5.8 days, the “Days to become negative: Lesion” value [2] is reported as 9.0 days and the “Assay (potency by agar diffusion)” value [3, 8] is reported as 800 µg/mg. For the same molecule, the “Assay (potency by agar diffusion)” value [3, 9] was 1000 µg/mg, the “Assay (potency by agar diffusion)” value [3, 10] was “about 1000 mcg/mg” and the MIC ([6]; Candida albicans strain 29) was 0.075 µg/mL (≈ 0.0552 µM). It also gave an MIC ([6]; Candida albicans strain Bevan) of 0.075 µg/mL (≈ 0.0552 µM), an MIC ([6]; Candida albicans strain Burke) of 0.075 µg/mL (≈ 0.0552 µM) and an MIC ([6]; Candida albicans strain Collins) of 0.075 µg/mL (≈ 0.0552 µM). For the same molecule, the MIC ([6]; Candida albicans strain Fix) was 0.075 µg/mL (≈ 0.0552 µM), the MIC ([6]; Candida albicans strain Lush) was 0.075 µg/mL (≈ 0.0552 µM) and the MIC ([6]; Candida albicans strain Merkel) was 0.075 µg/mL (≈ 0.0552 µM). It also gave an MIC ([6]; Candida albicans strain Newcomb) of 0.075 µg/mL (≈ 0.0552 µM), an MIC ([6]; Candida albicans strain No. 1) of 0.075 µg/mL (≈ 0.0552 µM) and an MIC ([6]; Candida albicans strain Raub) of 0.075 µg/mL (≈ 0.0552 µM). The MIC ([6]; Candida albicans strain Sperk) was 0.075 µg/mL (≈ 0.0552 µM), the MIC ([6]; Candida albicans strain Wisconsin) was 0.075 µg/mL (≈ 0.0552 µM) and the “cured at end of three day treatment” value ([7]; 1% suspension) was 60%. For the same molecule, the “cured at end of three day treatment” value ([7]; 5% suspension) was 60%, the “cured at end of three day treatment” value ([7]; 10% suspension) was 60% and the “cured at end of three day treatment” value ([7]; 15% suspension) was 100%. It also gave a PD50 ([4]; oral administration) of 25 mg/kg, a PD50 ([4]; subcutaneous administration) of 4 mg/kg and an LD50 ([5]; oral administration) of 800 mg/kg. The LD50 ([5]; subcutaneous administration) was 600 mg/kg.
